Assay results taken from EP0048614B1, “1-N-acylated and 1-N-alkylated derivatives of 4-0-substituted -2-deoxystreptamine aminoglycosides” (ELI LILLY AND COMPANY, priority 1980, dated 1982).
≈ marks a conversion by molar mass, not a printed value. Like-named read-outs stand apart in the source and are kept apart here.

Assays:
[1] = system: Bordetella bronchiseptica 16; assay: MIC, standard agar dilution test; format: cell-based; settings: Bordetella bronchiseptica, 16, read-out: Minimum Inhibitory Concentration
Description: (§1) The antibacterial activity of the deprotected compounds of this invention is illustrated by the following in vitro and in vivo test data obtained with representative compounds. In Table I, the minimum inhibitory concentration (MIC) for representative compounds against a wide range of gram-positive and gram-negative bacteria is presented. The MIC values were obtained by the standard agar dilution test.

[2] = system: Citrobacter freundii CF17; assay: MIC, standard agar dilution test; format: cell-based; settings: Citrobacter freundii, CF17, read-out: Minimum Inhibitory Concentration
Description: as §1

[3] = system: Enterobacter aerogenes C32; assay: MIC, standard agar dilution test; format: cell-based; settings: Klebsiella aerogenes
Description: as §1

[4] = system: Enterobacter aerogenes EB17; assay: MIC, standard agar dilution test; format: cell-based; settings: Klebsiella aerogenes
Description: as §1

[5] = system: Enterobacter aerogenes X68; assay: MIC, standard agar dilution test; format: cell-based; settings: Klebsiella aerogenes
Description: as §1

[6] = system: Enterobacter cloacae 265A; assay: MIC, standard agar dilution test; format: cell-based; settings: Enterobacter cloacae, 265A, read-out: Minimum Inhibitory Concentration
Description: as §1

Enterobacter cloacae EB5 = assay: MIC, standard agar dilution test; format: cell-based; settings: Enterobacter cloacae, EB5, read-out: Minimum Inhibitory Concentration
Description: as §1

Escherichia coli EC14 = assay: MIC, standard agar dilution test; format: cell-based
Description: as §1

Escherichia coli N10 = assay: MIC, standard agar dilution test; format: cell-based; settings: Escherichia coli
Description: as §1

Escherichia coli TEM = assay: MIC, standard agar dilution test; format: cell-based; settings: read-out: Minimum Inhibitory Concentration
Description: as §1

Hemophilus influenzae 76 = assay: MIC, standard agar dilution test; format: cell-based
Description: as §1

[7] = system: Hemophilus influenzae C.L.; assay: MIC, standard agar dilution test; format: cell-based; settings: Haemophilus influenzae
Description: as §1

[8] = system: Klebsiella pneumoniae KAE; assay: MIC, standard agar dilution test; format: cell-based; settings: Klebsiella pneumoniae, read-out: Minimum Inhibitory Concentration
Description: as §1

[9] = system: Klebsiella pneumoniae X26; assay: MIC, standard agar dilution test; format: cell-based
Description: as §1

Proteus inconstans PR33 = assay: MIC, standard agar dilution test; format: cell-based; settings: Providencia alcalifaciens, PR33, read-out: Minimum Inhibitory Concentration
Description: as §1

Proteus morganii PR15 = assay: MIC, standard agar dilution test; format: cell-based; settings: Morganella morganii, PR15, read-out: Minimum Inhibitory Concentration
Description: as §1

Proteus rettgeri C24 = assay: MIC, standard agar dilution test; format: cell-based; settings: Providencia rettgeri
Description: as §1

Proteus rettgeri PR7 = assay: MIC, standard agar dilution test; format: cell-based; settings: Providencia rettgeri, PR7, read-out: Minimum Inhibitory Concentration, Proteus rettgeri PR7
Description: as §1

[10] = system: Pseudomonas aeruginosa Ps18; assay: MIC, standard agar dilution test; format: cell-based; settings: Pseudomonas aeruginosa, PS18, read-out: Minimum Inhibitory Concentration
Description: as §1

[11] = system: Pseudomonas aeruginosa X239; assay: MIC, standard agar dilution test; format: cell-based; settings: Pseudomonas aeruginosa, X239, read-out: Minimum Inhibitory Concentration
Description: as §1

[12] = system: Pseudomonas aeruginosa X528; assay: MIC, standard agar dilution test; format: cell-based; settings: Pseudomonas aeruginosa, X528, read-out: Minimum Inhibitory Concentration
Description: as §1

[13] = system: Salmonella heidelberg X514; assay: MIC, standard agar dilution test; format: cell-based; settings: Salmonella enterica, X514, read-out: Minimum Inhibitory Concentration
Description: as §1

[14] = system: Salmonella typhimurium 1335; assay: MIC, standard agar dilution test; format: cell-based; settings: Salmonella enterica, TYPHIMURIUM, read-out: Minimum Inhibitory Concentration
Description: as §1

Serratia marcescens SE3 = assay: MIC, standard agar dilution test; format: cell-based; settings: Serratia marcescens, SE3, read-out: Minimum Inhibitory Concentration
Description: as §1

Serratia marcescens X99 = assay: MIC, standard agar dilution test; format: cell-based
Description: as §1

Shigella sonnei N9 = assay: MIC, standard agar dilution test; format: cell-based; settings: read-out: Minimum Inhibitory Concentration
Description: as §1

[15] = system: Staphylococcus aureus S13E; assay: MIC, standard agar dilution test; format: cell-based; settings: read-out: Minimum Inhibitory Concentration
Description: as §1

[16] = system: Staphylococcus aureus V41; assay: MIC, standard agar dilution test; format: cell-based; settings: Staphylococcus aureus, V41, read-out: Minimum Inhibitory Concentration
Description: as §1

[17] = system: Staphylococcus aureus X1.1; assay: MIC, standard agar dilution test; format: cell-based
Description: as §1

[18] = system: Staphylococcus aureus X400; assay: MIC, standard agar dilution test; format: cell-based; settings: Staphylococcus aureus, X400, read-out: Minimum Inhibitory Concentration, Staphylococcus aureus X400
Description: as §1

[19] = system: Staphylococcus epidermidis EPI1; assay: MIC, standard agar dilution test; format: cell-based; settings: Staphylococcus epidermidis, EPI1; read-out: Minimum Inhibitory Concentration
Description: as §1

[20] = system: Staphylococcus epidermidis EPI2; assay: MIC, standard agar dilution test; format: cell-based
Description: as §1

[21] = system: Streptococcus group D 9960; assay: MIC, standard agar dilution test; format: cell-based; settings: D9960, read-out: Minimum Inhibitory Concentration
Description: as §1

[22] = system: Streptococcus group D X66; assay: MIC, standard agar dilution test; format: cell-based; settings: DX66, read-out: Minimum Inhibitory Concentration
Description: as §1

[23] = system: Streptococcus pneumoniae Park I; assay: MIC, standard agar dilution test; format: cell-based
Description: as §1

[24] = system: Streptococcus pyogenes C203; assay: MIC, standard agar dilution test; format: cell-based; settings: Streptococcus pyogenes, C203, read-out: Minimum Inhibitory Concentration
Description: as §1

[25] = system: Staphylococcus aureus 3055; assay: Subcutaneous therapy of experimental bacterial infection in mice (ED50); format: in vivo; settings: Staphylococcus aureus, 3055, sc
Protocol: Table II illustrates the effective dose (ED50, the effective dose to protect 50 percent of the test animals) for representative compounds of this invention against an experimental bacterial infection in mice.
The ED50 values were determined as described by W. E. Wick et al., Journal of Bacteriology, 81 [No. 2], 233-235 (1961).

Escherichia coli X563 = assay: Standard disc-plate method, zone of inhibition against apramycin-resistant strain; format: cell-based; settings: apramycin-resistant E. coli X563, one value for each of two test runs per compound; for zone of inhibition at 15 µg/disc: Escherichia coli, X563, read-out: Zone of Inhibition (diameter in mm), 15 mcg/disc
Description: Table III, shown below, illustrates the in vitro activity of 1-N-(S-y-amino-a-hydroxybutyryl)apramycin, 1-N-(RS-y-amino-a-hydroxybutyryl)apramycin, and 1-N-(S-y-amino-a-hydroxybutyryl)nebramine against an apramycin resistant strain of E. coli. The results below were obtained using the standard disc-plate method. The numerical values are the diameters in millimeters of the zones of inhibition observed against this bacterium. Compounds substituted with the y-amino-a-hydroxybutyryl and analogous side chains are useful in treating infections caused by apramycin resistant bacteria such as the one above.
The test organism (E. coli X563) used in the experiments summarized in Table III is resistant to apramycin due to a 3-N-acetyltransferase which enzymatically inactivates apramycin.

Compound | MIC [1] | MIC [2] | MIC [6] | MIC (Enterobacter cloacae EB5) | MIC (Escherichia coli TEM) | MIC [8] | MIC (Proteus inconstans PR33) | MIC (Proteus morganii PR15) | MIC (Proteus rettgeri PR7) | MIC [10] | MIC [11] | MIC [12] | MIC [13] | MIC [14] | MIC (Serratia marcescens SE3) | MIC (Shigella sonnei N9) | MIC [15] | MIC [16] | MIC [18] | MIC [19] | also measured
CNC1C(OC2OC(CO)C(N)C(O)C2O)OC2CC(N)C(OC3C(N)CC(NC(=O)C(O)CCN)C(O)C3O)OC2C1O (stereo not drawn) [Test Compound 1, 1-N-(S-γ-amino-α-hydroxybutyryl)apramycin] | 64 µg/mL (≈ 99.9 µM) | 16 µg/mL (≈ 25 µM) | 32 µg/mL (≈ 49.9 µM) | 16 µg/mL (≈ 25 µM) | 4 µg/mL (≈ 6.24 µM) | 16 µg/mL (≈ 25 µM) | 8 µg/mL (≈ 12.5 µM) | 128 µg/mL (≈ 200 µM) | 8 µg/mL (≈ 12.5 µM) | 128 µg/mL (≈ 200 µM) | 64 µg/mL (≈ 99.9 µM) | 64 µg/mL (≈ 99.9 µM) | 16 µg/mL (≈ 25 µM) | 16 µg/mL (≈ 25 µM) | 16 µg/mL (≈ 25 µM) | 16 µg/mL (≈ 25 µM) | 16 µg/mL (≈ 25 µM) | 16 µg/mL (≈ 25 µM) | 32 µg/mL (≈ 49.9 µM) | 8 µg/mL (≈ 12.5 µM) | MIC ([3]; C32, read-out: Minimum Inhibitory Concentration): 8 µg/mL (≈ 12.5 µM); MIC ([4]; EB17, read-out: Minimum Inhibitory Concentration): 16 µg/mL (≈ 25 µM); MIC ([5]; X68, read-out: Minimum Inhibitory Concentration, Enterobacter aerogenes X68): 8 µg/mL (≈ 12.5 µM); MIC (Escherichia coli EC14; Escherichia coli EC14, agar dilution, read-out: Minimum Inhibitory Concentration): 16 µg/mL (≈ 25 µM); MIC (Escherichia coli N10; N10, Escherichia coli N10, agar dilution, read-out: Minimum Inhibitory Concentration): 8 µg/mL (≈ 12.5 µM); MIC (Hemophilus influenzae 76; Haemophilus influenzae, 76, read-out: Minimum Inhibitory Concentration, Hemophilus influenzae 76): 16 µg/mL (≈ 25 µM); MIC ([7]; read-out: Minimum Inhibitory Concentration, Hemophilus influenzae C.L.): 16 µg/mL (≈ 25 µM); MIC ([9]; Klebsiella pneumoniae, X26, read-out: Minimum Inhibitory Concentration): 8 µg/mL (≈ 12.5 µM); MIC (Proteus rettgeri C24; C24, read-out: Minimum Inhibitory Concentration): 8 µg/mL (≈ 12.5 µM); MIC (Serratia marcescens X99; Serratia marcescens, X99, read-out: Minimum Inhibitory Concentration, Serratia marcescens X99): 8 µg/mL (≈ 12.5 µM); MIC ([17]; Staphylococcus aureus, X1.1, read-out: Minimum Inhibitory Concentration): 8 µg/mL (≈ 12.5 µM); MIC ([20]; Staphylococcus epidermidis, EPI2, read-out: Minimum Inhibitory Concentration): 4 µg/mL (≈ 6.24 µM); MIC [21]: > 128 µg/mL; MIC [22]: > 128 µg/mL; MIC ([23]; Streptococcus pneumoniae; read-out: Minimum Inhibitory Concentration): 64 µg/mL (≈ 99.9 µM); MIC [24]: 64 µg/mL (≈ 99.9 µM); ED50 ([25]; read-out: Effective Dose (ED50), mg/kg × 2 subcutaneous doses at 1 and 5 hours post infection, mice challenged with 68.1 LD50's): < 4.35 mg/kg; Zone of Inhibition (diameter in mm) (Escherichia coli X563; 15 mcg/disc, listed as 1): 14.7 mm; zone of inhibition at 15 µg/disc (Escherichia coli X563): 12.4 mm
CNC1C(OC2OC(CO)C(N)C(O)C2O)OC2CC(N)C(OC3C(N)CC(NC(=O)CN)C(O)C3O)OC2C1O (centres unmarked) [Test Compound 3, 1-N-glycylapramycin] | > 128 µg/mL | > 128 µg/mL | 128 µg/mL (≈ 215 µM) | 128 µg/mL (≈ 215 µM) | 32 µg/mL (≈ 53.6 µM) | > 128 µg/mL | 128 µg/mL (≈ 215 µM) | > 128 µg/mL | > 128 µg/mL | > 128 µg/mL | > 128 µg/mL | > 128 µg/mL | 128 µg/mL (≈ 215 µM) | 128 µg/mL (≈ 215 µM) | 128 µg/mL (≈ 215 µM) | 128 µg/mL (≈ 215 µM) | 64 µg/mL (≈ 107 µM) | 128 µg/mL (≈ 215 µM) | > 128 µg/mL | 64 µg/mL (≈ 107 µM) | MIC ([3]; Enterobacter aerogenes C32, agar dilution, read-out: Minimum Inhibitory Concentration): 64 µg/mL (≈ 107 µM); MIC ([4]; Enterobacter aerogenes EB17, agar dilution, read-out: Minimum Inhibitory Concentration): 64 µg/mL (≈ 107 µM); MIC ([5]; Enterobacter aerogenes X68, read-out: Minimum Inhibitory Concentration): 64 µg/mL (≈ 107 µM); MIC (Escherichia coli EC14; Escherichia coli, EC14, read-out: Minimum Inhibitory Concentration): 128 µg/mL (≈ 215 µM); MIC (Escherichia coli N10; N10, read-out: Minimum Inhibitory Concentration): > 128 µg/mL; MIC (Hemophilus influenzae 76; Haemophilus influenzae, Hemophilus influenzae 76, read-out: Minimum Inhibitory Concentration): 64 µg/mL (≈ 107 µM); MIC ([7]; Hemophilus influenzae C.L., read-out: Minimum Inhibitory Concentration): 64 µg/mL (≈ 107 µM); MIC ([9]; Klebsiella pneumoniae X26, agar dilution, read-out: Minimum Inhibitory Concentration): 64 µg/mL (≈ 107 µM); MIC (Proteus rettgeri C24; Proteus rettgeri C24, agar dilution, read-out: Minimum Inhibitory Concentration): 64 µg/mL (≈ 107 µM); MIC (Serratia marcescens X99; Serratia marcescens X99, read-out: Minimum Inhibitory Concentration): 64 µg/mL (≈ 107 µM); MIC ([17]; Staphylococcus aureus X1.1, agar dilution, read-out: Minimum Inhibitory Concentration): 64 µg/mL (≈ 107 µM); MIC ([20]; Staphylococcus epidermidis EPI2, agar dilution, read-out: Minimum Inhibitory Concentration): 64 µg/mL (≈ 107 µM); MIC [21]: > 128 µg/mL; MIC [22]: > 128 µg/mL; MIC ([23]; Streptococcus pneumoniae, read-out: Minimum Inhibitory Concentration): > 128 µg/mL; MIC [24]: > 128 µg/mL; ED50 ([25]; mg/kg × 2 subcutaneous doses at 1 and 5 hours post infection, mice challenged with 1,794 LD50's, read-out: Effective Dose (ED50)): 59.5 mg/kg; zone of inhibition at 15 µg/disc (Escherichia coli X563): < 8 mm
